This is an account of results in PMC9653166 (Journal of medicinal chemistry, 2022).

The target in test [1] is T1, Sirt5 (Homo sapiens, UniProt Q9NXA8).
T1 sequence (Q9NXA8 34-302): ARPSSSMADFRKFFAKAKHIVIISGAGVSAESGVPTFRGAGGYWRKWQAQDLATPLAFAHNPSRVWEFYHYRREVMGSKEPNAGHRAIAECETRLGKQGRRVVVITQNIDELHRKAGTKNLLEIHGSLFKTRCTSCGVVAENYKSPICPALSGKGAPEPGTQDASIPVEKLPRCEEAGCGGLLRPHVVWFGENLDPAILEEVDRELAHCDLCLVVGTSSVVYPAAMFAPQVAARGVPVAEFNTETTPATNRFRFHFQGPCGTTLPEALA
The test can be described thus: Coupled enzymatic desuccinylation assay, Sirt5 with CPS1-succK537 peptide. It is filed as biochemical.

Test [2] deals with GDH. As to the kind of experiment: GDH activity assay in MDA-MB-231 cell lysates. It counts as cell-based, human. As to conditions: wild-type MDA-MB-231 cells, 50 μM, 4 or 24 h.
Test [3] concerns GOT1 acetylation. The test can be described thus: GOT1 acetylation Western blot in pancreatic cancer cell lines. It is filed as cell-based.
The test system of test [4] is glutaminase (GLS). As to the kind of experiment: GLS activity assay in MDA-MB-231 cell lysates. As to conditions: MDA-MB-231 cells, 50 μM, 4 and 24 h. It is filed as cell-based, human.
Test [5] has as its system MDA-MB-231 cells. The test can be described thus: Ammonia level assay, MDA-MB-231 cells. It counts as cell-based, human. As to conditions: 50 μM, 4 and 24 h.
The target in test [6] is T2, Sirt5 (Homo sapiens, UniProt Q9NXA8).
T2 sequence (Q9NXA8 37-310): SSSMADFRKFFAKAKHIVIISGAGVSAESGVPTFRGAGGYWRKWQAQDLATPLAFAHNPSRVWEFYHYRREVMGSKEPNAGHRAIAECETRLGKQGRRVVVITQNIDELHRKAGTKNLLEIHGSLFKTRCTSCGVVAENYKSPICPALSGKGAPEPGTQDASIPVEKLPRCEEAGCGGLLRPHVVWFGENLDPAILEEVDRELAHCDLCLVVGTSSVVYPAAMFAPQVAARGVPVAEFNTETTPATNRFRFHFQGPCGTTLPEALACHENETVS
Particulars: cited from earlier work.

For test [7], the target named is T3, Sirt3 (Homo sapiens, UniProt Q9NTG7).
T3 sequence (Q9NTG7 114-380): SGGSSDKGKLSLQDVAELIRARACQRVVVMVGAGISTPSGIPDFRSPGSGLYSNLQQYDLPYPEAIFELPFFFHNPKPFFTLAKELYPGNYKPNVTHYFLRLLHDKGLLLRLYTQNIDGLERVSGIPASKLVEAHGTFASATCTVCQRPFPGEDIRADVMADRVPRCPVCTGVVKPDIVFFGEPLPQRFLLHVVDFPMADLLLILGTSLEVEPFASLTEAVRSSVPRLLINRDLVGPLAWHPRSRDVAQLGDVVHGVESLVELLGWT
The test can be described thus: Coupled enzymatic deacetylation assay, Sirt3 with ACS2-acK642 peptide. It is filed as biochemical. As to conditions: coupled assay, ACS2 peptide, 10 and 100 μM compound.

The test system of test [8] is Sirt1-3. Particulars: FdL substrate; cited from earlier work.
The test system of test [9] is Sirt3. Particulars: cited from earlier work.

Each structure is given as a SMILES string.

On to `CCOC(=O)C1=CN(C(=O)c2ccccc2)C=C(C(=O)OCC)C1c1cccc(OC)c1` [Compound 19], for which the “Sirt5 activation (CPS1-succK537 desuccinylation)” value in [1] (10 μM compound) is 1.2- to 1.5 fold. The “Effect on Sirt5 activity (in words)” value in [1] (coupled assay, 10 and 100 μM compound) is listed as “specific Sirt5 activation”. Besides, the “GDH activity in cell lysates” value in test [2] was “decreased GDH activity”. Also, in test [3] (S2–013 and Capan1 cell lines, 20 μM, 24 h), the GOT1 acetylation entry is “decrease GOT1 acetylation”. Also, the “Effect on GOT1 acetylation” value in test [3] (SIRT5 knockout KPC and KPCS cell lines) was “negligible”. Besides, in test [4], the “GLS activity in cell lysates” value is recorded as “decreased GLS activity”. In addition, the Ammonia accumulation result in test [5] is on record as “blocked ammonia accumulation”. Besides, the “In vitro Sirt5 deacetylase activity” value in test [6] is listed as “increase in vitro Sirt5 deacetylase activity”.
In the case of `CCOC(=O)C1=CN(Cc2ccccc2)C=C(C(=O)OCC)C1c1ccccc1` [Compound 1], the “Effect on Sirt3 activity (in words)” value in [7] is “Sirt3 activation”. Besides, the “Sirt1-3 activation in the FdL assay” value in [8] is on record as “Sirt1-3 activating properties”.
Turning to `C=CCc1ccc(O)c(-c2ccc(O)c(CC=C)c2)c1` [honokiol], the Sirt3 activation result in test [9] was “weakly activate Sirt3”.
